Measured values published in patent publication US10294202B2, “Pyrrolidinones as herbicides” (FMC Corporation, priority 2013, dated 2019).

Legend:
barnyardgrass [1] = assay: Test C pre-/postemergence herbicide test; assay type: in vivo, Echinochloa crus-galli
Method in brief: (§1)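 Visual rating, 0 (no effect) to 100 (complete control), versus untreated controls after 13 to 15 days in the greenhouse. Pre: seeds in loam/sand, sprayed at planting. Post: 1- to 4-leaf plants (2 to 18 cm) in peat-based mix. Compounds in non-phytotoxic solvent plus surfactant.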

crabgrass, large = assay: Test C pre-/postemergence herbicide test; assay type: in vivo, Digitaria sanguinalis
Method in brief: as §1

blackgrass = assay: Test C pre-/postemergence herbicide test; assay type: in vivo, Alopecurus myosuroides
Method in brief: as §1

rice = assay: Test B flooded paddy test; assay type: in vivo, Oryza sativa; details: 500 g ai/ha, Flood; scale of 0 to 100 where 0 is no effect and 100 is complete control
Method in brief: (§2)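 Plants grown to 2-leaf stage; pots flooded 3 cm above soil and compound applied directly into paddy water, depth held throughout. Visual rating against untreated controls after 13 to 15 days in greenhouse, 0 (no effect) to 100 (complete control).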

soybean = assay: Test C pre-/postemergence herbicide test; assay type: in vivo, Glycine max
Method in brief: as §1

morningglory = assay: Test C pre-/postemergence herbicide test; assay type: in vivo, Ipomoea coccinea
Method in brief: as §1

corn = assay: Test A pre-/postemergence herbicide test; assay type: in vivo, Zea mays; details: Postemergence
Method in brief: (§3)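 Seeds sown in loam soil/sand blend received a preemergence directed soil spray of test chemical in non-phytotoxic solvent with surfactant; postemergence plants (2–10 cm, one- to two-leaf stage) were sprayed with the same formulation. After about 10 days in greenhouse, injury was rated visually versus untreated controls, 0 (no effect) to 100 (complete control).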

giant foxtail = assay: Test A pre-/postemergence herbicide test; assay type: in vivo, Setaria faberii
Method in brief: as §3

ducksalad = assay: Test B flooded paddy test; assay type: in vivo, Heteranthera limosa; details: 500 g ai/ha, Flood; scale of 0 to 100 where 0 is no effect and 100 is complete control
Method in brief: as §2

ragweed = assay: Test C pre-/postemergence herbicide test; assay type: in vivo, Ambrosia elatior
Method in brief: as §1

barnyardgrass [2] = assay: Test A pre-/postemergence herbicide test; assay type: in vivo, Echinochloa crus-galli
Method in brief: as §3

sedge, umbrella = assay: Test B flooded paddy test; assay type: in vivo, Cyperus difformis; details: 500 g ai/ha, Flood; scale of 0 to 100 where 0 is no effect and 100 is complete control
Method in brief: as §2

barnyardgrass [3] = assay: Test B flooded paddy test; assay type: in vivo, Echinochloa crus-galli; details: 500 g ai/ha, Flood; scale of 0 to 100 where 0 is no effect and 100 is complete control
Method in brief: as §2

[4] = Postemergence, 31 g ai/ha, scale 0 to 100 (0 no effect, 100 complete control)
[5] = Postemergence, 62 g ai/ha, scale 0 (no effect) to 100 (complete control)
[6] = Postemergence, 125 g ai/ha, scale 0 to 100 (0 no effect, 100 complete control)
[7] = Postemergence, 250 g ai/ha, scale 0 to 100 (0 no effect, 100 complete control)
[8] = Preemergence, 31 g ai/ha, scale 0 to 100, 0 is no effect and 100 is complete control
[9] = Preemergence, 62 g ai/ha, scale 0 to 100 (0 no effect, 100 complete control)
[10] = Preemergence, 125 g ai/ha, scale 0 to 100 (0 no effect, 100 complete control)
[11] = 500 g ai/ha, 0 to 100 scale (0 no effect, 100 complete control)
[12] = Postemergence, 125 g ai/ha, 0 to 100 scale, 0 is no effect, 100 is complete control
[13] = Postemergence, 500 g ai/ha, 0 to 100 scale (0 no effect, 100 complete control)
[14] = Preemergence, 125 g ai/ha, 0 to 100 scale where 0 is no effect and 100 is complete control
[15] = preemergence, 500 g ai/ha, 0 to 100 scale, 0 is no effect and 100 is complete control
[16] = Preemergence, 125 g ai/ha, scale 0 to 100
[17] = Postemergence, 125 g ai/ha, visual rating on 0 to 100 scale (0 no effect, 100 complete control), approx. 10 days
[18] = Preemergence, 500 g ai/ha, visual rating on 0 to 100 scale (0 no effect, 100 complete control)

O=C1NCC(c2cccc(Cl)c2)C1C(=O)Nc1cccc(F)c1F (racemic) [Compound 275]
Plant response rating, Barnyardgrass (barnyardgrass [1]; [4]): 30 | Plant response rating, Barnyardgrass (barnyardgrass [1]; [5]): 60 | Plant response rating, Barnyardgrass (barnyardgrass [1]; [6]): 75 | Plant response rating, Barnyardgrass (barnyardgrass [1]; [7]): 85 | Barnyardgrass plant response rating (barnyardgrass [1]; [8]): 80 | Barnyardgrass plant response rating (barnyardgrass [1]; [9]): 95 | Plant response rating, Barnyardgrass (barnyardgrass [1]; [10]): 95 | Plant response rating (scale of 0 to 100; 0 is no effect, 100 is complete control), Barnyardgrass (barnyardgrass [1]; Preemergence, 250 g ai/ha): 98 | Plant response rating, Crabgrass, Large (crabgrass, large; [4]): 15 | Plant response rating, Crabgrass, Large (crabgrass, large; [5]): 40 | Plant response rating, Crabgrass, Large (crabgrass, large; [6]): 65 | Plant response rating, Crabgrass, Large (crabgrass, large; [7]): 85 | Crabgrass, Large plant response rating (crabgrass, large; [8]): 90 | Crabgrass, Large plant response rating (crabgrass, large; [9]): 95 | Plant response rating, Crabgrass, Large (crabgrass, large; [10]): 100 | Plant response rating (scale of 0 to 100), Crabgrass, Large (crabgrass, large; Preemergence, 250 g ai/ha): 100 | Plant response rating, Blackgrass (blackgrass; [4]): 0 | Plant response rating, Blackgrass (blackgrass; [5]): 0 | Plant response rating, Blackgrass (blackgrass; [6]): 5 | Plant response rating, Blackgrass (blackgrass; [7]): 40 | Blackgrass plant response rating (blackgrass; [8]): 45 | Blackgrass plant response rating (blackgrass; [9]): 60 | Plant response rating, Blackgrass (blackgrass; [10]): 70 | Plant response rating (scale of 0 to 100), Blackgrass (blackgrass; Preemergence, 250 g ai/ha): 80 | Plant response rating, Rice (rice): 0 | Plant response rating, Soybean (soybean; [4]): 0 | Plant response rating, Soybean (soybean; [5]): 0 | Plant response rating, Soybean (soybean; [6]): 0 | Plant response rating, Soybean (soybean; [7]): 10 | Soybean plant response rating (soybean; [8]): 0 | Soybean plant response rating (soybean; [9]): 0 | Plant response rating, Soybean (soybean; [10]): 0 | Plant response rating (scale of 0 to 100), Soybean (soybean; Preemergence, 250 g ai/ha): 15 | Plant response rating, Morningglory (morningglory; [4]): 10 | Plant response rating, Morningglory (morningglory; [5]): 10 | Plant response rating, Morningglory (morningglory; [6]): 20 | Plant response rating, Morningglory (morningglory; [7]): 20 | Morningglory plant response rating (morningglory; [8]): 0 | Morningglory plant response rating (morningglory; [9]): 0 | Plant response rating, Morningglory (morningglory; [10]): 0 | Plant response rating (scale of 0 to 100), Morningglory (morningglory; Preemergence, 250 g ai/ha): 50 | Plant response rating, Corn (corn; 125 g ai/ha, 0 to 100 scale, 0 is no effect, 100 is complete control): 40 | Plant response rating, Corn (corn; [11]): 90 | Plant response rating, Foxtail, Giant (giant foxtail; [12]): 90 | Plant response rating, Foxtail, Giant (giant foxtail; [13]): 90 | Plant response rating, Foxtail, Giant (giant foxtail; [14]): 90 | Plant response rating, Foxtail, Giant (giant foxtail; [15]): 90 | Plant response rating, Ducksalad (ducksalad): 100 | Plant response rating, Ragweed (ragweed; [4]): 20 | Plant response rating, Ragweed (ragweed; [5]): 65 | Plant response rating, Ragweed (ragweed; [6]): 70 | Plant response rating, Ragweed (ragweed; [7]): 70 | Ragweed plant response rating (ragweed; [8]): 5 | Ragweed plant response rating (ragweed; [9]): 5 | Plant response rating, Ragweed (ragweed; [10]): 60 | Plant response rating (scale of 0 to 100), Ragweed (ragweed; Preemergence, 250 g ai/ha): 85 | Plant response rating, Barnyardgrass (barnyardgrass [2]; [12]): 90 | Plant response rating, Barnyardgrass (barnyardgrass [2]; [13]): 90 | Plant response rating, Barnyardgrass (barnyardgrass [2]; [14]): 90 | Plant response rating, Barnyardgrass (barnyardgrass [2]; [15]): 90 | Plant response rating, Sedge, Umbrella (sedge, umbrella): 30 | Plant response rating, Barnyardgrass (barnyardgrass [3]): 85

O=C1NCC(c2cccc(C(F)(F)F)c2)C1C(=O)Nc1ccc(F)c(F)c1F (centres unmarked) [Compound 315]
Plant response rating, Barnyardgrass (barnyardgrass [1]; [4]): 25 | Plant response rating, Barnyardgrass (barnyardgrass [1]; [5]): 65 | Plant response rating, Barnyardgrass (barnyardgrass [1]; [6]): 70 | Plant response rating, Barnyardgrass (barnyardgrass [1]; [7]): 85 | Barnyardgrass plant response rating (barnyardgrass [1]; [8]): 90 | Barnyardgrass plant response rating (barnyardgrass [1]; [9]): 90 | Plant response rating, Barnyardgrass (barnyardgrass [1]; [10]): 90 | Plant response rating (scale of 0 to 100; 0 is no effect, 100 is complete control), Barnyardgrass (barnyardgrass [1]; Preemergence, 250 g ai/ha): 95 | Plant response rating, Crabgrass, Large (crabgrass, large; [4]): 55 | Plant response rating, Crabgrass, Large (crabgrass, large; [5]): 65 | Plant response rating, Crabgrass, Large (crabgrass, large; [6]): 70 | Plant response rating, Crabgrass, Large (crabgrass, large; [7]): 75 | Crabgrass, Large plant response rating (crabgrass, large; [8]): 90 | Crabgrass, Large plant response rating (crabgrass, large; [9]): 95 | Plant response rating, Crabgrass, Large (crabgrass, large; [16]): 95 | Plant response rating (scale of 0 to 100), Crabgrass, Large (crabgrass, large; Preemergence, 250 g ai/ha): 98 | Plant response rating, Blackgrass (blackgrass; [4]): 0 | Plant response rating, Blackgrass (blackgrass; [5]): 0 | Plant response rating, Blackgrass (blackgrass; [6]): 30 | Plant response rating, Blackgrass (blackgrass; [7]): 25 | Blackgrass plant response rating (blackgrass; [8]): 60 | Blackgrass plant response rating (blackgrass; [9]): 60 | Plant response rating, Blackgrass (blackgrass; [16]): 65 | Plant response rating (scale of 0 to 100), Blackgrass (blackgrass; Preemergence, 250 g ai/ha): 85 | Plant response rating, Rice (rice): 15 | Plant response rating, Soybean (soybean; [4]): 0 | Plant response rating, Soybean (soybean; [5]): 0 | Plant response rating, Soybean (soybean; [6]): 0 | Plant response rating, Soybean (soybean; [7]): 15 | Soybean plant response rating (soybean; [9]): 0 | Plant response rating, Soybean (soybean; [16]): 0 | Plant response rating (scale of 0 to 100), Soybean (soybean; Preemergence, 250 g ai/ha): 0 | Plant response rating, Morningglory (morningglory; [4]): 25 | Plant response rating, Morningglory (morningglory; [5]): 65 | Plant response rating, Morningglory (morningglory; [6]): 35 | Plant response rating, Morningglory (morningglory; [7]): 10 | Morningglory plant response rating (morningglory; [8]): 20 | Morningglory plant response rating (morningglory; [9]): 25 | Plant response rating, Morningglory (morningglory; [16]): 35 | Plant response rating (scale of 0 to 100), Morningglory (morningglory; Preemergence, 250 g ai/ha): 45 | Plant response rating, Corn (corn; 125 g ai/ha, visual rating on 0 to 100 scale (0 no effect, 100 complete control), approx. 10 days): 70 | Plant response rating, Corn (corn; [11]): 80 | Plant response rating, Foxtail, Giant (giant foxtail; [17]): 90 | Plant response rating, Foxtail, Giant (giant foxtail; [13]): 90 | Plant response rating, Foxtail, Giant (giant foxtail; [14]): 90 | Foxtail, Giant plant response rating (giant foxtail; [18]): 90 | Plant response rating, Ducksalad (ducksalad): 100 | Plant response rating, Ragweed (ragweed; [4]): 0 | Plant response rating, Ragweed (ragweed; [5]): 20 | Plant response rating, Ragweed (ragweed; [6]): 65 | Plant response rating, Ragweed (ragweed; [7]): 70 | Ragweed plant response rating (ragweed; [9]): 20 | Plant response rating, Ragweed (ragweed; [16]): 50 | Plant response rating (scale of 0 to 100), Ragweed (ragweed; Preemergence, 250 g ai/ha): 80 | Plant response rating, Barnyardgrass (barnyardgrass [2]; [17]): 90 | Plant response rating, Barnyardgrass (barnyardgrass [2]; [13]): 90 | Plant response rating, Barnyardgrass (barnyardgrass [2]; [14]): 90 | Barnyardgrass plant response rating (barnyardgrass [2]; [18]): 90 | Plant response rating, Sedge, Umbrella (sedge, umbrella): 0 | Plant response rating, Barnyardgrass (barnyardgrass [3]): 70
